Consider 25 molecules from patent publication US11345681B1, “Inhibitors of fibroblast growth factor receptor kinases” (Kinnate Biopharma Inc., priority 2020, dated 2022).

This experiment addresses Wild type FGFR2 (Homo sapiens (Human), UniProt P21802). Kind of experiment: FGFR2 kinase assay (fluorescence-based microfluidic mobility shift assay). In kind it is biochemical. The conditions noted are these: wild type FGFR2 0.06 nM, 100 μM ATP, 80 minutes at room temperature.

Some results are limits rather than exact numbers.

Chain of Wild type FGFR2 (P21802 22-821): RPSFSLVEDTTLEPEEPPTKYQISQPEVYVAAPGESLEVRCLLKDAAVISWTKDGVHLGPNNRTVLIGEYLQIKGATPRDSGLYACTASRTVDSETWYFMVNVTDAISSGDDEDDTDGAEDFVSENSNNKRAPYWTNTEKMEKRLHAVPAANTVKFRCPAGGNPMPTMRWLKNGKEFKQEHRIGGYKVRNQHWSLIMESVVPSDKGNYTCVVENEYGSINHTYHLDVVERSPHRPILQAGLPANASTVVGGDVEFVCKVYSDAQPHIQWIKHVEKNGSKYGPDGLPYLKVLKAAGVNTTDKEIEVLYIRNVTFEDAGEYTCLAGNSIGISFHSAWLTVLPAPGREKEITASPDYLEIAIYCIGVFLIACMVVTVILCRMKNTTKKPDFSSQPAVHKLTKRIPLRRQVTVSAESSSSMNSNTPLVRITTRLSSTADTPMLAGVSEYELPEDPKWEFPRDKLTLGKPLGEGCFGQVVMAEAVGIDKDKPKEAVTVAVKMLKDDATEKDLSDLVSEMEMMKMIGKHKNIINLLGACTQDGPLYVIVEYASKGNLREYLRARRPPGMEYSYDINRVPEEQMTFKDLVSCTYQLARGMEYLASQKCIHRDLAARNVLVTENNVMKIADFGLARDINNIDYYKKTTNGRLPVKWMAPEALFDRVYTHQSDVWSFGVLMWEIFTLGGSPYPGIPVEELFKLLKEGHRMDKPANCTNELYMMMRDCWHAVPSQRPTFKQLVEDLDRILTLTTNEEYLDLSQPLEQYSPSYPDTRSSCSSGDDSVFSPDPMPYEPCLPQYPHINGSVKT

Take `C=CC(=O)N1C[C@@H](n2nc(C#Cc3cc4ncn(C)c4c(F)c3F)c(C(N)=O)c2NC)C[C@@H]1COC` [Example 101, 3-[2-(6,7-Difluoro-1-methyl-1,3-benzodiazol-5-yl)ethynyl]-1-[(3S,5R)-5-(methoxymethyl)-1-(prop-2-enoyl)pyrrolidin-3-yl]-5-(methylamino)pyrazole-4-carboxamide]: the half-inhibitory concentration (IC50) (as a rule, the concentration at which inhibition is half-maximal) (class symbols) is no more than 100 nM. `C=CC(=O)N1C[C@@H](n2nc(C#Cc3nc4ccccc4s3)c(C(N)=O)c2NC)C[C@@H]1COC` [Example 102, 3-[2-(1,3-Benzothiazol-2-yl)ethynyl]-1-[(3S,5R)-5-(methoxymethyl)-1-(prop-2-enoyl)pyrrolidin-3-yl]-5-(methylamino)pyrazole-4-carboxamide]: the IC50 (class symbols) is no more than 100 nM. Same read-out and setting: to `C=CC(=O)N1C[C@@H](n2nc(C#Cc3ccc4scnc4c3)c(C(N)=O)c2NC)C[C@@H]1COC` [Example 103, 3-[2-(1,3-Benzothiazol-5-yl)ethynyl]-1-[(3S,5R)-5-(methoxymethyl)-1-(prop-2-enoyl)pyrrolidin-3-yl]-5-(methylamino)pyrazole-4-carboxamide] belongs no more than 100 nM. In the case of `C=CC(=O)N1C[C@@H](n2nc(C#Cc3cn4ccccc4n3)c(C(N)=O)c2NC)C[C@@H]1COC` [Example 104, 3-(2-[Imidazo[1,2-a]pyridin-2-yl]ethynyl)-1-[(3S,5R)-5-(methoxymethyl)-1-(prop-2-enoyl)pyrrolidin-3-yl]-5-(methylamino)pyrazole-4-carboxamide], the IC50 (given as numeric bound) is greater than 500 nM. As for `C=CC(=O)N1C[C@@H](n2nc(C#Cc3ccc4ncnn4c3)c(C(N)=O)c2NC)C[C@@H]1COC` [Example 106, 1-[(3S,5R)-5-(Methoxymethyl)-1-(Prop-2-enoyl)pyrrolidin-3-yl]-5-(methylamino)-3-(2-[[1,2,4]triazolo[1,5-a]pyridin-6-yl]ethynyl)pyrazole-4-carboxamide], the IC50 (given as numeric bound) is greater than 500 nM. For `C=CC(=O)N1C[C@@H](n2nc(C#Cc3ccn4ncnc4c3)c(C(N)=O)c2NC)C[C@@H]1COC` [Example 107, 1-[(3S,5R)-5-(Methoxymethyl)-1-(prop-2-enoyl)pyrrolidin-3-yl]-5-(methylamino)-3-(2-[[1,2,4]triazolo[1,5-c]pyridin-7-yl]ethynyl)pyrazole-4-carboxamide], the IC50 (class symbols) lay within 100 to 1000 nM. On to `C=CC(=O)N1C[C@@H](n2nc(C#Cc3ccc4ocnc4c3)c(C(N)=O)c2NC)C[C@@H]1COC` [Example 108, 3-[2-(1,3-Benzoxazol-5-yl)ethynyl]-1-[(3S,5R)-5-(methoxymethyl)-1-(prop-2-enoyl)pyrrolidin-3-yl]-5-(methylamino)pyrazole-4-carboxamide], for which, where the note is “class symbols”, the IC50 is no more than 100 nM. Still for that read-out and setting: the figure for `C=CC(=O)N1C[C@@H](n2nc(C#Cc3c(F)cc4c(ncn4CC)c3F)c(C(N)=O)c2NCC2CC2)C[C@@H]1COC` [Example 109, 5-[(Cyclopropylmethyl)amino]-3-[2-(1-ethyl-4,6-difluoro-1,3-benzodiazol-5-yl)ethynyl]-1-[(3S,5R)-5-(methoxymethyl)-1-(prop-2-enoyl)pyrrolidin-3-yl]pyrazole-4-carboxamide] is no more than 100 nM; for `C=CC(=O)N1C[C@@H](n2nc(C#Cc3c(F)cc4c(ncn4CC)c3F)c(C(N)=O)c2NCCCN2CCOCC2)C[C@@H]1COC` [Example 111, 3-[2-(1-Ethyl-4,6-difluoro-1,3-benzodiazol-5-yl)ethynyl]-1-[(3S,5R)-5-(methoxymethyl)-1-(prop-2-enoyl)pyrrolidin-3-yl]-5-[[3-(morpholin-4-yl)propyl]amino]pyrazole-4-carboxamide] it is no more than 100 nM. The same measure, in the same setting: the figure for `C=CC(=O)N1CC[C@H](n2nc(C#Cc3c(F)cc4c(ncn4CC)c3F)c(C(N)=O)c2NCCN2CCOCC2)C1` [Example 112, 3-[2-(1-Ethyl-4,6-difluoro-1,3-benzodiazol-5-yl)ethynyl]-5-[[2-(morpholin-4-yl)ethyl]amino]-1-[(3S)-1-(prop-2-enoyl)pyrrolidin-3-yl]pyrazole-4-carboxamide] is no more than 100 nM; for `C=CC(=O)N1C[C@@H](n2nc(C#Cc3cc4ncn(C)c4c(F)c3Cl)c(C(N)=O)c2NC)C[C@@H]1COC` [Example 113, 3-[2-(6-chloro-7-fluoro-1-methyl-1,3-benzodiazol-5-yl)ethynyl]-1-[(3S,5R)-5-(methoxymethyl)-1-(prop-2-enoyl)pyrrolidin-3-yl]-5-(methylamino)pyrazole-4-carboxamide] it is no more than 100 nM; for `C=CC(=O)N1C[C@@H](n2nc(C#Cc3nc4ccccc4o3)c(C(N)=O)c2NC)C[C@@H]1COC` [Example 114, 3-[2-(1,3-Benzoxazol-2-yl)ethynyl]-1-[(3S,5R)-5-(methoxymethyl)-1-(prop-2-enoyl)pyrrolidin-3-yl]-5-(methylamino)pyrazole-4-carboxamide] it is no more than 100 nM.

For the molecule `C=CC(=O)N1C[C@@H](n2nc(C#Cc3cc4ncoc4cc3F)c(C(N)=O)c2NC)C[C@@H]1COC` [Example 115, 3-[2-(6-Fluoro-1,3-benzoxazol-5-yl)ethynyl]-1-[(3S,5R)-5-(methoxymethyl)-1-(prop-2-enoyl)pyrrolidin-3-yl]-5-(methylamino)pyrazole-4-carboxamide], for the setting “class symbols”, the IC50 is no more than 100 nM. Same read-out and setting: to `C=CC(=O)N1C[C@@H](n2nc(C#Cc3c(F)cc4c(ncn4CC)c3F)c(C(N)=O)c2NCCO)C[C@@H]1COC` [Example 116, 3-[2-(1-Ethyl-4,6-difluoro-1,3-benzodiazol-5-yl)ethynyl]-5-[(2-hydroxyethyl)amino]-1-[(3S,5R)-5-(methoxymethyl)-1-(prop-2-enoyl)pyrrolidin-3-yl]pyrazole-4-carboxamide] belongs no more than 100 nM. As for `C=CC(=O)N1C[C@@H](n2nc(C#Cc3c(F)cc4c(ncn4CC)c3F)c(C(N)=O)c2NCCOC)C[C@@H]1COC` [Example 117, 3-[2-(1-Ethyl-4,6-difluoro-1,3-benzodiazol-5-yl)ethynyl]-5-[(2-methoxyethyl)amino]-1-[(3S,5R)-5-(methoxymethyl)-1-(prop-2-enoyl)pyrrolidin-3-yl]pyrazole-4-carboxamide], the IC50 (class symbols) was no more than 100 nM.

In the case of `C=CC(=O)N1CC[C@H](n2nc(C#Cc3c(F)cc4c(ncn4CC)c3F)c(C(N)=O)c2NCC2CC2)C1` [Example 118, 5-[(Cyclopropylmethyl)amino]-3-[2-(1-ethyl-4,6-difluoro-1,3-benzodiazol-5-yl)ethynyl]-1-[(3S)-1-(prop-2-enoyl)pyrrolidin-3-yl]pyrazole-4-carboxamide], the IC50 (class symbols) was no more than 100 nM. On the same count and under the same terms, to `C=CC(=O)N1CC[C@H](n2nc(C#Cc3c(F)cc4c(ncn4CC)c3F)c(C(N)=O)c2NCCOC)C1` [Example 119, 3-[2-(1-Ethyl-4,6-difluoro-1,3-benzodiazol-5-yl)ethynyl]-5-[(2-methoxyethyl)amino]-1-[(3S)-1-(prop-2-enoyl)pyrrolidin-3-yl]pyrazole-4-carboxamide] belongs no more than 100 nM. Turning to `C=CC(=O)N1CC[C@H](n2nc(C#Cc3c(F)cc4c(ncn4CC)c3F)c(C(N)=O)c2NCCCN2CCOCC2)C1` [Example 120, 3-[2-(1-ethyl-4,6-difluoro-1,3-benzodiazol-5-yl)ethynyl]-5-[[3-(morpholin-4-yl)propyl]amino]-1-[(3S)-1-(prop-2-enoyl)pyrrolidin-3-yl]pyrazole-4-carboxamide], the IC50 (class symbols) was no more than 100 nM. Take `C=CC(=O)N1C[C@@H](n2cc(C#Cc3cc(F)c4c(c3)ncn4C)c(C(N)=O)c2NC)C[C@@H]1COC` [Example 121, 1-((3S,5S)-1-Acryloyl-5-(methoxymethy)pyrrolidin-3-yl)-3-((7-fluoro-1-methyl-1H-benzo[d]imidazol-5-yl)ethynyl)-5-(methylamino)-1H-pyrazole-4-carboxamide]: the IC50 (class symbols) was no more than 100 nM.

Regarding `C=CC(=O)N1C[C@@H](n2nc(C#Cc3cn4ncnc4cc3F)c(C(N)=O)c2NC)C[C@@H]1COC` [Example 122, 3-(2-[7-Fluoro-[1,2,4]triazolo[1,5-a]pyridin-6-yl]ethynyl)-1-[(3S,5R)-5-(methoxymethyl)-1-(prop-2-enoyl)pyrrolidin-3-yl]-5-(methylamino)pyrazole-4-carboxamide], where the note is “class symbols”, the IC50 was in the range of 100 to 1000 nM. Still for that read-out and setting: to `C=CC(=O)N1CC[C@H](n2nc(C#Cc3c(F)cc4c(ncn4CC)c3F)c(C(N)=O)c2NCCO)C1` [Example 123, 3-[2-(1-Ethyl-4,6-difluoro-1,3-benzodiazol-5-yl)ethynyl]-5-[(2-hydroxyethyl)amino]-1-[(3S)-1-(prop-2-enoyl)pyrrolidin-3-yl]pyrazole-4-carboxamide] belongs no more than 100 nM; to `C=CC(=O)N1C[C@@H](n2nc(C#Cc3cc4ncn(CC)c4c(F)c3F)c(C(N)=O)c2NC)C[C@@H]1COC` [Example 125, 3-[2-(1-Ethyl-6,7-difluoro-1,3-benzodiazol-5-yl)ethynyl]-1-[(3S,5R)-5-(methoxymethyl)-1-(prop-2-enoyl)pyrrolidin-3-yl]-5-(methylamino)pyrazole-4-carboxamide], no more than 100 nM.

Turning to `C=CC(=O)N1C[C@@H](n2nc(C#Cc3cc4ncn(CC)c4c(F)c3Cl)c(C(N)=O)c2NC)C[C@@H]1COC` [Example 126, 3-[2-(6-Chloro-1-ethyl-7-fluoro-1,3-benzodiazol-5-yl)ethynyl]-1-[(3S,5R)-5-(methoxymethyl)-1-(prop-2-enoyl)pyrrolidin-3-yl]-5-(methylamino)pyrazole-4-carboxamide], the 50% inhibitory concentration (IC50) (class symbols) was no more than 100 nM.

For the molecule `C=CC(=O)N1C[C@@H](n2nc(C#Cc3cc4nc(C)n(C)c4c(F)c3F)c(C(N)=O)c2NC)C[C@@H]1COC` [Example 127, 3-[2-(6,7-Difluoro-1,2-dimethyl-1,3-benzodiazol-5-yl)ethynyl]-1-[(3S,5R)-5-(methoxymethyl)-1-(prop-2-enoyl)pyrrolidin-3-yl]-5-(methylamino) pyrazole-4-carboxamide], where the note is “class symbols”, the IC50 was no more than 100 nM.

On to `C=CC(=O)N1C[C@@H](n2nc(C#Cc3cc4nc(C)n(C)c4c(F)c3Cl)c(C(N)=O)c2NC)C[C@@H]1COC` [Example 128, 3-[2-(6-Chloro-7-fluoro-1,2-dimethyl-1,3-benzodiazol-5-yl)ethynyl]-1-[(3S,5R)-5-(methoxymethyl)-1-(prop-2-enoyl)pyrrolidin-3-yl]-5-(methylamino)pyrazole-4-carboxamide], for which the concentration for half-maximal inhibition (IC50) (class symbols) is no more than 100 nM.
